According to paper PMC9658984, “Acetylation Enhances the Anticancer Activity and Oral Bioavailability of 5-Demethyltangeretin” (International Journal of Molecular Sciences, 2022):
Marks after values point to notes of the source that are not given here.

Key:
Cdc2 = experiment: Western blot protein expression, Cdc2; assay type: cell-based, human; details: PC-3 cells, 10 µM, only after 48 h
Procedure: (§1) Western blot was performed to analyze the protein expression in the PC-3 Cells. The cells were exposed to indicated concentrations of 5-ATAN for various time periods at 37 °C. Then, they were washed with cold PBS and harvested, and a Western blot was conducted as previously described.

PC-3 cell xenografts = experiment: Tumor growth inhibition in PC-3 cell xenograft model; assay type: in vivo, nude mice; details: for Tumor growth inhibitory rate, estimated by the means of tumor weight / Tumor weight at the end of the experiment: 10 mg/kg daily oral, nude mice; for Tumor weight at the end of the experiment: day 24, control 2.47 ± 0.43 g; for Effect on tumor volume: 10 mg/kg daily, PC-3 cell xenografts in nude mice
Description: Male nu/nu mice were obtained from BioLasco Taiwan (Taipei, Taiwan) and maintained on a standard laboratory chow (Purina rodent chow 5001, Purina, St. Louis, MO, USA). At 5 weeks of age, nude mice were used for the xenograft experiment. For the oral bioavailability study, 5-week-old male […] mice were purchased from the National Laboratory Animal Center (Taipei, Taiwan), and the experiment was started after 1 week of acclimation. All mice were housed in an air-conditioned room (temperature: 22 ± 2 °C; humidity: 50–60%) under standard conditions (12 h light/12 h dark cycle). All animal studies were approved by the National Pingtung University of Science and Technology, Institutional Animal Care and Use Committee with protocol numbers NPUST-102-015 and NPUST-105-045.
The 5-week-old nude mice were divided into three groups (n = 6) and administered with the vehicle, 5-DTAN (10 mg/kg), and 5-ATAN (10 mg/kg), respectively. Tumors were established by subcutaneous injections of PC-3 cells (1 × 10^6 cells) into the right flank side of nude mice. The tumor size was measured twice a week with digital calipers, and the tumor volume (V) was calculated by the following formula: V = length × width^2 × 0.5. On day 24, the mice were sacrificed by CO2, and the tumors were harvested and weighed.

MMP-9 = experiment: Western blot protein expression, MMP-9; assay type: cell-based, human; details: PC-3 cells, 5 µM, effect enhanced with treatment time
Procedure: as §1

PC-3 cells [1] = experiment: Mitochondrial membrane potential (DiOC6, flow cytometry); assay type: cell-based, human; details: 2.5-10 µM, 48 h
Procedure: (§2) The PC-3 cells were treated with the indicated concentration of 5-DTAN or 5-ATAN for 48 h, and then cells were collected and stained by a CaspGLOW^TM Fluorescein Active Caspase-3 Staining Kit (Thermo Fisher Scientific, MA, USA) or 3,3′-dihexyloxacarbocyanine iodide (DiOC6, Merck Millipore, Burlington, MA, USA) for caspase-3 activity and mitochondria membrane potential analysis, respectively. The percentages of caspase-3-activated or DiOC6-positive cells were measured using a flow cytometer and calculated by the CellQuest Pro software.

Bcl-xL = experiment: Western blot protein expression, Bcl-xL; assay type: cell-based, human; details: PC-3 cells, 10 µM
Procedure: as §1

Cyclin B1 = experiment: Western blot protein expression, Cyclin B1; assay type: cell-based, human; details: PC-3 cells, 10 µM, time-dependent
Procedure: as §1

PC-3 cells [2] = experiment: Wound healing cell migration assay; assay type: cell-based, human; details: 24 h
Procedure: (§3) The colony formation assay was conducted using a procedure modified from the previous report. PC-3 cells were seeded in 6-well plates at a density of 500 cells/well and allowed to attach for 24 h. Subsequently, the cells were treated with various concentrations of 5-ATAN. After 14 days of incubation, the colonies formed were observed by crystal violet staining and photographed. The wound healing assay was performed to assess the effect of 5-ATAN on the migration ability of PC-3 cells. Cells were seeded into a 6 cm dish at a cell density of 1 × 10^6 cells/well. After being cultured at 37 °C for 24 h, a 200 µL yellow pipette tip was used to scrape a gap in the middle of the dish. After washing twice with 1X PBS solution, the medium was replaced with fresh, serum-free medium containing different concentrations of 5-ATAN and incubated for 24 h. Then, the images were taken with an inverted phase contrast microscope at a magnification of 100×, and the Image J software was used for the measurement of the wound width. The percentage of cell migration (% of control) was calculated by measuring the movement of the cells into the scratch area after 24 h of treatment with DMSO or 5-ATAN.

PC-3 cells [3] = experiment: Colony formation assay; assay type: cell-based, human; details: PC-3 cells, 1.25, 2.5 and 5 µM, 14 days
Procedure: as §3

caspase-3 = experiment: Caspase-3 activity by flow cytometry (CaspGLOW staining); assay type: cell-based, human; details: PC-3 cells, 48 h
Procedure: as §2

MMP-2 = experiment: Western blot protein expression, MMP-2; assay type: cell-based, human; details: PC-3 cells, 5 µM, only at 48 h
Procedure: as §1

[4] = Tissue distribution of 5-DTAN after 7 days oral dosing; assay type: in vivo; details: 50 mg/kg i.g., 7 consecutive days, C57BL/6J mice; except kidney and lung
Procedure: Basically, esterase in the cytosol and plasma rapidly converts 5-ATAN absorbed into cells or into the blood circulation to 5-DTAN by deacetylation. The 5-DTAN in 5-DTAN-treated and 5-ATAN-treated samples can be determined by the HPLC-electrochemical detection (ECD) method. PC-3 cells were seeded in 10 cm dishes (1 × 10^6 cells) and allowed to attach for 24 h. Subsequently, cells were treated with various concentrations of 5-DTAN or 5-ATAN for 12 h, or with 15 µM of 5-DTAN or 5-ATAN for different time periods. Then, the cells were washed with cold PBS, collected, and centrifuged at 300× g for 5 min to remove the supernatant. […] The cytosolic levels of 5-DTAN in the resulting supernatant were analyzed by HPLC with an Ascentis RP-Amide column (L × I.D. 15 cm × 4.6 mm, 3 μm) (Merck KGaA, Darmstadt, Germany) as previously described. […] The samples were reconstituted in methanol and the levels of 5-DTAN were analyzed by HPLC-ECD. Pharmacokinetic parameters, including maximum concentration (Cmax), maximum time (Tmax), half-life (T1/2), and area under the curve (AUC), were calculated and obtained by the Thermo kinetica 5.0 software (Thermo Fisher Scientific, Waltham, MA, USA). […] The supernatant was obtained by centrifuging at 15,130× g for 15 min at 4 °C and then extracted with an equal volume of ethyl acetate and analyzed using the methods described above.

Cdc25c = experiment: Western blot protein expression, Cdc25c; assay type: cell-based, human; details: PC-3 cells, 10 µM, time-dependent
Procedure: as §1

[5] = system: PC-3 human prostate cancer cells; experiment: MTT cell viability assay; assay type: cell-based; details: PC-3 cells, 48 h; for IC50: Homo sapiens, MTT
Procedure: PC-3 human prostate cancer cell line was obtained from the Bioresource Collection and Research Center (Hsinchu, Taiwan) and maintained in RPMI medium with 10% FBS and 1% penicillin-streptomycin (PS). The cells were incubated in a 5% CO2 humidified atmosphere at 37 °C. TAN, 5-DTAN, and 5-ATAN were dissolved in DMSO to prepare a 20 mM sample stock, and the final ratio of the DMSO in the treatment medium was 0.1%.
(§4) PC-3 cells were seeded in 96-well plates at a density of 2.5 × 10^3 cells/well and allowed to attach for 24 h. The medium was changed to serum-free RPMI supplemented with 0–20 μM TAN, 5-DTAN, or 5-ATAN, and then incubated for an additional 48 h. The cell viability was determined by the MTT assay and represented as a percentage of the growth of the DMSO-treated cells. FACScan flow cytometer (Becton Dickinson, San Jose, CA, USA) was used to analyze the cell cycle distribution as previously mentioned. Briefly, PC-3 cells treated with various concentrations of 5-DTAN or 5-ATAN for 48 h were trypsinized and gently fixed in 70% ice-cold ethanol and stored at −20 °C for at least 24 h. Then, the cells were washed with cold phosphate-buffered saline (PBS), followed by incubation with 40 μg/mL PI, 0.1 mg/mL RNase A, and 0.1% TritonX-100 in the dark for 30 min at room temperature. Subsequently, the cell cycle distribution of the PI-stained cells was analyzed by a FACScan flow cytometer, and the results were analyzed and calculated using ModFit LT Ver. 3.0 software. The proportion of the sub-G1 phase was quantitated and represented as the apoptotic ratio. Furthermore, a QIAamp DNA mini kit was used to extract DNA from the PC-3 cells treated with 5-DTAN or 5-ATAN for 48 h. Then, the extracted DNA was loaded on a 2% agarose gel containing HealthView^TM Nucleic Acid Stain (Genomics, New Taipei, Taiwan) for electrophoresis at 50 V. The gel was visualized under UV light, and the DNA fragmentation pattern was photographed.

PC-3 cells [6] = experiment: Cell cycle distribution / sub-G1 apoptotic ratio by PI flow cytometry; assay type: cell-based, human; details: 48 h
Procedure: as §4

PC-3 cells [7] = experiment: DNA fragmentation (agarose gel electrophoresis); assay type: cell-based, human; details: 48 h
Procedure: as §4, with “Then, the extracted DNA was loaded on a 2% agarose gel containing HealthView^TM Nucleic Acid Stain (Genomics, New Taipei, Taiwan) for electrophoresis at 50 V. The gel was visualized under UV light, and the DNA fragmentation pattern was photographed.” left out

Bax = experiment: Western blot protein expression, Bax; assay type: cell-based, human; details: PC-3 cells, 10 µM
Procedure: as §1

CL1-5 cell xenograft = system: CL1-5 cell xenograft; parameters: method as in PMID 26569090; details: 20 mg/kg i.p., CL1-5 cell xenograft mice; cited from earlier work
[8] = parameters: method as in doi:10.1016/j.jff.2008.09.003; details: cited from earlier work

Row | IC50 [5] | Structure (SMILES) | Tumor growth inhibitory rate, estimated by the means of tumor weight (PC-3 cell xenografts) | Tumor weight at the end of the experiment (PC-3 cell xenografts) | Effect on tumor volume (PC-3 cell xenografts) | Cell Cycle Distribution (%) G0/G1 (PC-3 cells [6]; 2.5 μM) | Cell Cycle Distribution (%) G2/M (PC-3 cells [6]; 2.5 μM) | Cell Cycle Distribution (%) S (PC-3 cells [6]; 2.5 μM) | Cell Cycle Distribution (%) G0/G1 (PC-3 cells [6]; 5 μM) | Cell Cycle Distribution (%) G2/M (PC-3 cells [6]; 5 μM) | Cell Cycle Distribution (%) S (PC-3 cells [6]; 5 μM) | Cell Cycle Distribution (%) G0/G1 (PC-3 cells [6]; 10 μM) | Cell Cycle Distribution (%) G2/M (PC-3 cells [6]; 10 μM) | Cell Cycle Distribution (%) S (PC-3 cells [6]; 10 μM) | Concentration at which DNA ladders were observed (PC-3 cells [7]) | also measured
1 | 5.1 µM | COc1ccc(-c2cc(=O)c3c(OC(C)=O)c(OC)c(OC)c(OC)c3o2)cc1 [5-ATAN, 5-acetyloxy-6,7,8,4′-tetramethoxyflavone] | 61.9% | 0.94 ± 0.18 g | significantly suppressed | 58.5 ± 1.1 ^A % | 34.7 ± 0.8 ^C % | 6.8 ± 0.3 ^B % | 49.1 ± 0.3 ^B % | 45.7 ± 0.5 ^B % | 5.2 ± 0.3 ^C % | 44.7 ± 0.3 ^C % | 50.3 ± 1.3 ^A % | 4.6 ± 0.5 ^D % | higher than 5 μM | Expression of Cdc-2 (Cdc2): reduced; Expression of MMP-9 (MMP-9): significantly inhibited; Effect on mitochondrial membrane potential (PC-3 cells [1]): dose-dependent decline; Expression of Bcl-xL (Bcl-xL): marked decrease; Expression of Cyclin B1 (Cyclin B1): dramatically down-regulated; Suppression of migration compared to the control (PC-3 cells [2]; 1.25 µM): 35.5%; Suppression of migration compared to the control (PC-3 cells [2]; 2.5 µM): 48.5%; Suppression of migration compared to the control (PC-3 cells [2]; 5 µM): 73.6%; Number of colonies (PC-3 cells [3]): dose-dependently decreased; Percentage of caspase-3 activity (caspase-3; 2.5 μM): 7.2 ± 0.6%; Percentage of caspase-3 activity (caspase-3; 5 μM): 9.1 ± 1.7%; Percentage of caspase-3 activity (caspase-3; 10 μM): 18.8 ± 02.4%; Expression of MMP-2 (MMP-2): obviously inhibited; Levels of 5-DTAN in most tissues vs 5-DTAN-treated mice [4]: significantly higher; Expression of Cdc25c (Cdc25c): dramatically down-regulated; IC50 fold lower than that of 5-DTAN [5]: 2.3 fold; IC50 fold lower than that of TAN [5]: 3.4 fold; Apoptotic cells (sub-G1) (PC-3 cells [6]; 10 μM): 22.2%; Expression of Bax (Bax): slight increase; Tumor growth inhibitory rate (CL1-5 cell xenograft): 43%
2 | 17.2 µM | COc1ccc(-c2cc(=O)c3c(OC)c(OC)c(OC)c(OC)c3o2)cc1 [TAN, 5,6,7,8,4′-pentamethoxyflavone, reference compound] | – | – | – | – | – | – | – | – | – | – | – | – | – | –
3 | 11.8 µM | COc1ccc(-c2cc(=O)c3c(O)c(OC)c(OC)c(OC)c3o2)cc1 [5-DTAN, 5-hydroxy-6,7,8,4′-tetramethoxyflavone, reference compound] | 43.7% | 1.39 ± 0.36 g | significantly suppressed | 60.2 ± 2.8 ^b % | 31.6 ± 2.7 ^a % | 8.2 ± 0.1% | 59.9 ± 0.4 ^b % | 31.4 ± 0.5 ^a % | 8.7 ± 0.3% | 58.2 ± 2.4 ^b % | 32.6 ± 1.1 ^a % | 8.5 ± 0.9% | 20 µM | Solubility in biological systems [8]: extremely poor solubility
